{"source": "patent US7994157B2", "about": "“Method for dispersing plant sterol for beverage and a plant sterol-dispersed beverage, of which particle size is nanometer-scale in dispersed beverage” (KIP Biotech LLC, priority 2000, dated 2011)", "origin": "cited, not measured here", "tested_on": "serum cholesterol level", "settings": "applied form in an oil phase (margarine); U.S. Pat. No. 5,502,045"}
{"substance": "sitostanol fatty acid ester", "values": [{"measurement": "reduction of the LDL-C level", "value": "≤ 16", "unit": "%"}]}
